Test results: patent US20090105072A1, “2-(Pyridin-2-Yl)-Pyrimidines for Use as Fungicides” (priority 2007, published 2009)

System: Puccinia recondita
Assay: Curative activity against brown rust of wheat caused by Puccinia recondita
Type: in vivo
Details: 250 ppm, wheat seedlings cultivar Kanzler, 7 days after treatment, untreated plants 90% infected
Description: The active compounds were prepared separately or together as a stock solution with 25 mg of active compound which was made up to 10 ml using a mixture of acetone and/or dimethyl sulfoxide (DMSO) and the emulsifier Wettoll® EM 31 (wetting agent having emulsifying and dispersing action based on the ethoxylated alkylphenols) in a volume ratio of solvent/emulsifier of 99 to 1. The mixture was then made up with water to 100 ml. This stock solution was diluted with the solvent/emulsifier/water mixture described to the concentration of active compound stated below.
Leaves of potted wheat seedlings of the cultivar “Kanzler” were inoculated with a spore suspension of brown rust of wheat (Puccinia recondite). The pots were then placed in a chamber with high atmospheric humidity (90 to 95%) and 20 to 22° C. for 24 hours. During this time, the spores germinated and the germ tubes penetrated into the leaf tissue. The next day, the infected plants were sprayed to runoff point with the above-described active compound solution having the active compound concentration stated below. After the spray coating had dried on, the test plants were cultivated in a greenhouse at temperatures between 20 and 22° C. and 65 to 70% relative atmospheric humidity for 7 days. The extent of the rust fungus development on the leaves was then determined.

| Structure (SMILES) | infection (extent of the rust fungus development on the leaves) |
| --- | --- |
| COc1ccc(-c2nc(-c3ncc4c(n3)CCCCC4)ccc2C)cn1 [Example 44] | no infection |
| COc1ccc(-c2nc(-c3ncc4c(n3)CCCCC4)ccc2C)cn1 [drawing 28] | 90% |
